Experimental findings from patent US6071917A, “N-benzenesulphonyl-L-proline derivatives as bradykinin B2 antagonists” (Fournier Industrie Et Sante, priority 1996, dated 2000) are described below.

Where a name gives a salt, the structure may show the parent alone.

The target of this assay is T1, guinea-pig B2 receptor (Cavia porcellus, UniProt O70526).
T1 construct: Ileum segments are isolated from male guinea-pigs; tissue Iffa Credo, l'Arbresle, France (supplier of the animals); host or cells: ileum membranes of male Dunkin-Hartley guinea-pigs
T1 sequence (O70526 1-372): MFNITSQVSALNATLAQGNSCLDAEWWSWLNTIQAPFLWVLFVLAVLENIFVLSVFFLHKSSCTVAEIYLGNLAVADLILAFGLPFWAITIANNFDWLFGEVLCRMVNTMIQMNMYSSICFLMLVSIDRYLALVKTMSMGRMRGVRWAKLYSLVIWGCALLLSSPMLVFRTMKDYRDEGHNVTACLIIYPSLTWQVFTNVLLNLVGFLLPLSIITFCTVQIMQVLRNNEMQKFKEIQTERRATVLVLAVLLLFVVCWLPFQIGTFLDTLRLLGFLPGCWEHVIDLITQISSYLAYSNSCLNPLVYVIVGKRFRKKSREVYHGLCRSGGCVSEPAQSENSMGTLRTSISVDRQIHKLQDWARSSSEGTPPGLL
Description: [3H]-bradykinin binding to guinea-pig ileum membranes. The settings on record: test compound at 10^-6 M; [3H]-bradykinin 120 pM; 50 μg ileum membrane protein; 90 min at 20° C.; read-out: Activity (%): percentage inhibition of the binding of [3H]-bradykinin. As for the experimental part:
The following pharmacological test is used: Ileum segments are isolated from male guinea-pigs [of the Dunkin-Hartley strain (Iffa Credo, l'Arbresle, France)] and ground in the following TES buffer: TES 25 mM, 1,10-phenanthroline 1 mM (pH 6.8), bacitracin 140 μg/ml, BSA 1 g/l. The membranes are then isolated by centrifugation (18,000 rpm; 20 min; 4° C.). The binding studies are carried out in this TES buffer using [^3 H]-bradykinin (120 pM) and 50 μg of membrane protein per test (final volume 500 μl) with an equilibrium time of 90 min at 20° C. The percentage inhibition of the binding of [^3 H]-bradykinin is then determined in the presence of one of the test compounds according to the invention at a concentration of 10^-6 M.
The results obtained from these tests (shown as "activity") are collated in Table I below with reference to the Examples given in the description.
For `Cc1cc(C)c2cccc(OCc3c(Cl)ccc(S(=O)(=O)N4CCC[C@H]4C(=O)NCc4cccc(C(=N)N)c4)c3Cl)c2n1` [Example 2, 1-[[3-[(2,4-Dimethylquinolin-8-yl)oxymethyl]-2,4-dichlorophenyl]sulfonyl]-N-[3-(aminoiminomethyl)phenylmethyl]-2(S)-pyrrolidinecarboxamide dihydrochloride], the inhibition (as a rule, the change of the read-out against control, counted positive when it falls) at 1 µM turned out to be 100%.
The figure for `Cc1cc(C)c2cccc(OCc3c(Cl)ccc(S(=O)(=O)N4CCC[C@H]4C(=O)N(C)Cc4ccc(C(=N)N)cc4)c3Cl)c2n1` [Example 4, 1-[[3-[(2,4-Dimethylquinolin-8-yl)oxymethyl]-2,4-dichlorophenyl]sulfonyl]-N-methyl-N-[4-(aminoiminomethyl)phenylmethyl]-2(S)-pyrrolidinecarboxamide dihydrochloride] is 97.8%; for `Cc1cc(C)c2cccc(OCc3c(Cl)ccc(S(=O)(=O)N4CCC[C@H]4C(=O)NCc4ccc(C(=N)N)cc4)c3Cl)c2n1` [Example 6, 1-[[3-[(2,4-Dimethylquinolin-8-yl)oxymethyl]-2,4-dichlorophenyl]sulfonyl]-N-[4-(aminoiminomethyl)phenylmethyl]-2(S)-pyrrolidinecarboxamide bis(methanesulfonate)] it is 100%.
The figure for `Cc1ccc2cccc(OCc3c(Cl)ccc(S(=O)(=O)N4CCC[C@H]4C(=O)NCc4ccc(C(=N)N)cc4)c3Cl)c2n1` [Example 8, 1-[[3-[(2-Methylquinolin-8-yl)oxymethyl]-2,4-dichlorophenyl]sulfonyl]-N-[4-(aminoiminomethyl)phenylmethyl]-2(S)-pyrrolidinecarboxamide dihydrochloride] is 96.6%; for `Cc1ccc2cccc(OCc3c(Cl)ccc(S(=O)(=O)N4CCC[C@H]4C(=O)Nc4cccc(C(=N)N)c4)c3Cl)c2n1` [Example 10, 1-[[3-[(2-Methylquinolin-8-yl)oxymethyl]-2,4-dichlorophenyl]sulfonyl]-N-[3-(aminoiminomethyl)phenyl]-2(S)-pyrrolidinecarboxamide dihydrochloride] it is 100%; for `Cc1cc(C)c2cccc(OCc3c(Cl)ccc(S(=O)(=O)N4CCC[C@H]4C(=O)N4CCN(C(=O)c5ccc(C(=N)N)cc5)CC4)c3Cl)c2n1` [Example 12, 1-[[3-[(2,4-Dimethylquinolin-8-yl)oxymethyl]-2,4-dichlorophenyl]sulfonyl]-2(S)-[[4-[4-(aminoiminomethyl)benzoyl]piperazin-1-yl]carbonyl]pyrrolidine dihydrochloride] it is 99.3%.
Under `Cc1cc(C)c2cccc(OCc3c(Cl)ccc(S(=O)(=O)N4CCC[C@H]4C(=O)N4CCN(C(=O)Cc5ccc(C(=N)N)cc5)CC4)c3Cl)c2n1` [Example 14, 1-[[3-[(2,4-Dimethylquinolin-8-yl)oxymethyl]-2,4-dichlorophenyl]sulfonyl]-(S)-[[4-[2-[4-(aminoiminomethyl)phenyl]-1-oxoethyl]piperazin-1-yl]carbonyl]pyrrolidine dihydrochloride] stands 100%; under `Cc1cc(C)c2cccc(OCc3c(Cl)ccc(S(=O)(=O)N4CCC[C@H]4C(=O)N4CCN(C(=O)COc5ccc(C(=N)N)cc5)CC4)c3Cl)c2n1` [Example 16, 1-[[3-[(2,4-Dimethylquinolin-8-yl)oxymethyl]-2,4-dichlorophenyl]sulfonyl]-2(S)-[[4-[2-[4-(aminoiminomethyl)phenoxyl]-1-oxoethyl]piperazin-1-yl]carbonyl]pyrrolidine dihydrochloride], 100%; under `Cc1ccc2cccc(OCc3c(Cl)ccc(S(=O)(=O)N4CCC[C@H]4C(=O)N4CCN(C(=O)c5ccc(C(=N)N)cc5)CC4)c3Cl)c2n1` [Example 18, 1-[[3-[(2-Methylquinolin-8-yl)oxymethyl]-2,4-dichlorophenyl]sulfonyl]-2(S)-[[4-[4-(aminoiminomethyl)benzoyl]piperazin-1-yl]carbonyl]pyrrolidine dihydrochloride], 100%.
`Cc1ccc2cccc(OCc3c(Cl)ccc(S(=O)(=O)N4CCC[C@H]4C(=O)N4CCN(C(=O)Cc5ccc(C(=N)N)cc5)CC4)c3Cl)c2n1` [Example 20, 1-[[3-[(2-Methylquinolin-8-yl)oxymethyl]-2,4-dichlorophenyl]sulfonyl]-2(S)-[[4-[2-[4-(aminoiminomethyl)phenyl-1-oxoethyl]piperazin-1-yl]carbonyl]pyrrolidinedihydrochloride]: the inhibition at 1 µM came to 100%.
Under `Cc1ccc2cccc(OCc3c(Cl)ccc(S(=O)(=O)N4CCC[C@H]4C(=O)N4CCN(C(=O)COc5ccc(C(=N)N)cc5)CC4)c3Cl)c2n1` [Example 22, 1-[[3-[(2-Dimethylquinolin-8-yl)oxymethyl]-2,4-dichlorophenyl]sulfonyl]-2(S)-[4-[2-[4-(aminoiminomethyl)phenoxyl-1-oxoethyl]piperazin-1-yl]carbonyl]pyrrolidine dihydrochloride] stands 100%; under `Cc1ccc2cccc(OCc3c(Cl)ccc(S(=O)(=O)N4CCC[C@H]4C(=O)NC4CCN(C(=O)c5ccc(C(=N)N)cc5)CC4)c3Cl)c2n1` [Example 24], 98.9%.
As for `Cc1cc(C)c2cccc(OCc3c(Cl)ccc(S(=O)(=O)N4CCC[C@H]4C(=O)NC4CCN(C(=O)c5ccc(C(=N)N)cc5)CC4)c3Cl)c2n1` [Example 26, 1-[[3-[(2,4-Dimethylquinolin-8-yl)oxymethyl]-2,4-dichlorophenyl]sulfonyl]-N-[1-[4-(aminoiminomethyl)benzoyl]piperidin-4-yl]-2(S)-pyrrolidinecarboxamide bis(methanesulfonate)], the inhibition at 1 µM turned out to be 100%.
Under `Cc1cc(C)c2cccc(OCc3c(Cl)ccc(S(=O)(=O)N4CCC[C@H]4C(=O)NC4CCN(C(=O)COc5ccc(C(=N)N)cc5)CC4)c3Cl)c2n1` [Example 28] stands 98%.
On to `Cc1cc(C)c2cccc(OCc3c(Cl)ccc(S(=O)(=O)N4CCC[C@H]4C(=O)NCC4CCN(C(=O)COc5ccc(C(=N)N)cc5)CC4)c3Cl)c2n1` [Example 30, 1-[[3-[(2,4-Dimethylquinolin-8-yl)oxymethyl]-2,4-dichlorophenyl]sulfonyl]-N-[[1-[2-[4-(aminoiminomethyl)phenoxy]-1-oxoethyl]piperidin-4-yl]methyl]-2(S)-pyrrolidinecarboxamide bis(methanesulfonate)], for which the inhibition at 1 µM was found to be 99.3%.
